From article PMC7714071, “Interaction of amyloid beta with humanin and acetylcholinesterase is modulated by ATP” (FEBS Open Bio, 2020)

How the values were obtained:
[1] = test system: H1299 cells; details: cited from earlier work
[2] = test system: Aβ42; details: HN and AChE compared; cited from earlier work
Text: Humanin has been previously reported to bind amino acid residues 17–28 of Aβ (Fig. 1). AChE is also known to bind Aβ (1–16) and the Aβ (12–28) region (Fig. 1). Since the binding sites of AChE and HN on Aβ are overlapping, we previously investigated whether HN and AChE can simultaneously bind Aβ [79].

[3] = test system: AChE; assay: ELISA, binding of biotinylated-Aβ40 to immobilised AChE; set-up: species or system human
Text: Most of the material used was purchased as we previously reported. Nitrocellulose membranes, PBS, ATP, recombinant human AChE (C1682, UniProt accession ID: C9JD78), streptavidin‐conjugated horseradish peroxidase (HRP) conjugate, Ponceau S solution, PMSF, and HS sodium salt from bovine kidney were purchased from Sigma‐Aldrich (St. Louis, MO, USA). Mouse IgG isotype control (mIgG), ultra 3,3′,5,5′‐tetramethylbenzidine (TMB)‐ELISA substrate solution, Halt Protease and Phosphatase Inhibitor Cocktail, HN polyclonal antibody (rabbit, PA1‐41610), and Nunc MaxiSorpTM 96‐well flat bottom plates were from Thermo Fisher (Waltham, MA, USA). […]
ELISAs were carried out as we previously reported. […] TBST was then used to wash the wells 4× before proceeding in one of two ways: (a) biotinylated samples were analyzed by adding 100 µL streptavidin–HRP conjugate in TBST (1 : 2500 dilution) to the samples followed by incubation for 3 h at RT on a shaker, or (b) samples without biotin were analyzed by adding 100 µL TBST containing the primary antibody as per the manufacturer's recommendation, incubating for 3 h at RT on a shaker, followed by washing the wells 4× with TBST. […] The reaction was stopped with 100 µL 2 M H2SO4 after incubating at RT for 0.5–15 min, resulting in a yellow color change, measured by absorbance at 450 nm. […] Statistical analysis was determined by the […]

Humanin [HN]
cell viability upon ID of HN ([1]; HN immunodepleted from H1299 conditioned media): diminished cell viability
apoptosis upon ID of HN ([1]; HN-ID H1299 media): increased apoptosis
affinity for Aβ42 [2]: comparable affinities

heparan sulfate [HS]
effect of HS on binding of Aβ40 to AChE ([3]; AChE 10 nM on wells, biotinylated-Aβ 1 μM, increasing HS, three independent assays, Fig. 2C): No effects

Nc1ncnc2c1ncn2[C@@H]1O[C@H](COP(=O)(O)OP(=O)(O)OP(=O)(O)O)[C@@H](O)[C@H]1O [ATP, Adenosine triphosphate]
effect of ATP on affinity of AChE to Aβ40 ([3]; 200 μM ATP, 30 min preincubation RT, pH 7.5, 10 mM MgCl2, three experiments in triplicate, Fig. 3A): reduced the affinity
